From US20240327380A1, “BTK INHIBITORS” (BIOGEN MA INC., priority 2020, published 2024)

target: T1, active BTK enzyme (Upstate 14-552) (Homo sapiens, UniProt Q06187); experiment: In Vitro BTK Kinase Assay: Btk-PolyGAT-LS Assay; type: biochemical; details: ATP 10 μM, polyGAT 100 nM, BTK 0.25 nM, 30 minutes, TRF readout
T1 construct: purchased Upstate 14-552
Experimental: In Vitro BTK Kinase Assay: Btk-PolyGAT-LS Assay The purpose of the BTK in vitro assay is to determine compound potency against BTK through the measurement of IC50. Compound inhibition is measured after monitoring the amount of phosphorylation of a fluorescein-labeled polyGAT peptide (Invitrogen PV3611) in the presence of active BTK enzyme (Upstate 14-552), ATP, and inhibitor. The BTK kinase reaction was done in a black 96 well plate (costar 3694). For a typical assay, a 24 μL aliquot of a ATP/peptide master mix (final concentration; ATP 10 μM, polyGAT 100 nM) in kinase buffer (10 mM Tris-HCl pH 7.5, 10 mM MgCl2, 200 μM […], 5 mM DTT, 0.01% Triton X-100, and 0.2 mg/ml casein) is added to each well. Next, […] of a 4-fold, 40× compound titration in 100% DMSO solvent is added, followed by adding 15 μL of BTK enzyme mix in 1× kinase buffer (with a final concentration of 0.25 nM). The assay is incubated for 30 minutes before being stopped with 28 μL of a 50 mM EDTA solution. Aliquots (5 μL) of the kinase reaction are transferred to a low volume white 384 well plate (Coming 3674), and 5 μL of a 2× detection buffer (Invitrogen PV3574, with 4 nM Tb-PY20 antibody, Invitrogen PV3552) is added. The plate is covered and incubated for 45 minutes at room temperature. Time resolved fluorescence (TRF) on Molecular Devices M5 (332 nm excitation; 488 nm emission; 518 nm fluorescein emission) is measured. IC50 values are calculated using a four parameter fit with 100% enzyme activity determined from the DMSO control and 0% activity from the EDTA control.

T1 sequence (Q06187 whole entry): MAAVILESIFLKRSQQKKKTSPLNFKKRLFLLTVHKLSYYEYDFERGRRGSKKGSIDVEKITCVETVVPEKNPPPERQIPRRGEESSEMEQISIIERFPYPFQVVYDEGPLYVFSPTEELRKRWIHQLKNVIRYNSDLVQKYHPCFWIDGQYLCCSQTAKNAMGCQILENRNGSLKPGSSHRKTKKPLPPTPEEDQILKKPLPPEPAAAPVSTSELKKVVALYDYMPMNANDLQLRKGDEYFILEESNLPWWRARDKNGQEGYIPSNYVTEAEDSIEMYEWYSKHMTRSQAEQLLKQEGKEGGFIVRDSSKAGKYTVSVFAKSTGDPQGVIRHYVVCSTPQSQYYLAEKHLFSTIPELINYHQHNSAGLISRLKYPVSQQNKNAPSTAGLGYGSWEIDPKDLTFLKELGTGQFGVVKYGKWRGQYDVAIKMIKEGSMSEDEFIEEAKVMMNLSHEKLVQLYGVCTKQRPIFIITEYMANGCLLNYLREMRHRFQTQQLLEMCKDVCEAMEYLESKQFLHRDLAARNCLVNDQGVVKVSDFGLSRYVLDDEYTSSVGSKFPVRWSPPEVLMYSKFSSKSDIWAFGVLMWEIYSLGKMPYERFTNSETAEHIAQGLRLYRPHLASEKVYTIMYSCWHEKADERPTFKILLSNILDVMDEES

Structure (SMILES) | IC50 [nM]
C=CC(=O)N(C)C1CCN(c2cncnc2-c2ccc(CNC(=O)c3cn(C(C)(C)C)nn3)c(C)c2)C1 (centres unmarked) [Example 9, 1-(tert-butyl)-N-(2-methyl-4-(5-(3-(N-methylacrylamido)pyrrolidin-1-yl)pyrimidin-4-yl)benzyl)-1H-1,2,3-triazole-4-carboxamide] | ≤ 1
Cc1cc(-c2c(F)cncc2N2CCN(C(=O)/C=C/CN(C)C)CC2)ccc1CNC(=O)c1noc(C2(C)CC2)n1 [Example 77, (E)-N-(4-(3-(4-(4-(dimethylamino)but-2-enoyl)piperazin-1-yl)-5-fluoropyridin-4-yl)-2-methylbenzyl)-5-(1-methylcyclopropyl)-1,2,4-oxadiazole-3-carboxamide] | 1 to 10
C=CC(=O)N1CCC2(CCN(c3cnccc3-c3ccc(CNC(=O)c4cn(C(C)(C)C)nn4)c(C)c3)C2)C1 (centres unmarked) [Example 4, N-(4-(3-(7-acryloyl-2,7-diazaspiro[4.4]nonan-2-yl)pyridin-4-yl)-2-methylbenzyl)-1-(tert-butyl)-1H-1,2,3-triazole-4-carboxamide] | > 10
CN(C)C/C=C/C(=O)N1CCN(c2cnccc2-c2ccc(CNC(=O)c3nc(C(C)(C)C)no3)c(C(F)F)c2)CC1 [Example 89, (E)-3-(tert-butyl)-N-(2-(difluoromethyl)-4-(3-(4-(4-(dimethylamino)but-2-enoyl)piperazin-1-yl)pyridin-4-yl)benzyl)-1,2,4-oxadiazole-5-carboxamide] | ≤ 1
Cc1cc(-c2ccncc2N2CCN(C(=O)/C=C/CN(C)C)CC2)ccc1CNC(=O)c1noc(C2(CF)CC2)n1 [Example 93, (E)-N-(4-(3-(4-(4-(dimethylamino)but-2-enoyl)piperazin-1-yl)pyridin-4-yl)-2-methylbenzyl)-5-(1-(fluoromethyl)cyclopropyl)-1,2,4-oxadiazole-3-carboxamide] | ≤ 1
C=CC(=O)N(C)C1CCCN(c2cnccc2-c2ccc(CNC(=O)c3cnc(C(C)(C)C)o3)c(C)c2)C1 (centres unmarked) [Example 38, 2-(tert-butyl)-N-(2-methyl-4-(3-(3-(N-methylacrylamido)piperidin-1-yl)pyridin-4-yl)benzyl)oxazole-5-carboxamide] | ≤ 1
C=CC(=O)N1CCC[C@@H](c2cnccc2-c2ccc(CNC(=O)c3cn(C(C)(C)C)nn3)c(C)c2)C1 (single isomer, unassigned) [Example 25] | > 10
Cc1cc(-c2ccncc2N2CCN(C(=O)/C=C/CN(C)C)C(C(F)(F)F)C2)ccc1CNC(=O)c1noc(C(C)(C)C)n1 (centres unmarked) [Example 75, (E)-5-(tert-butyl)-N-(4-(3-(4-(4-(dimethylamino)but-2-enoyl)-3-(trifluoromethyl)piperazin-1-yl)pyridin-4-yl)-2-methylbenzyl)-1,2,4-oxadiazole-3-carboxamide] | ≤ 1
C=CC(=O)N1CCN(c2cncnc2-c2ccc(CNC(=O)c3nc(C(C)(C)C)no3)c(C)c2)CC1 [Example 83, N-(4-(5-(4-acryloylpiperazin-1-yl)pyrimidin-4-yl)-2-methylbenzyl)-3-(tert-butyl)-1,2,4-oxadiazole-5-carboxamide] | ≤ 1
Cc1cc(-c2c(F)cncc2N2CCN(C(=O)/C=C/CN(C)C)CC2)ccc1CNC(=O)c1nc(C(C)(C)C)no1 [Example 78, (E)-3-(tert-butyl)-N-(4-(3-(4-(4-(dimethylamino)but-2-enoyl)piperazin-1-yl)-5-fluoropyridin-4-yl)-2-methylbenzyl)-1,2,4-oxadiazole-5-carboxamide] | ≤ 1
Cc1cc(-c2c(F)cncc2N2CCN(C(=O)/C=C/CN(C)C)CC2)ccc1CNC(=O)c1noc(C(C)(C)C)n1 [Example 76, (E)-5-(tert-butyl)-N-(4-(3-(4-(4-(dimethylamino)but-2-enoyl)piperazin-1-yl)-5-fluoropyridin-4-yl)-2-methylbenzyl)-1,2,4-oxadiazole-3-carboxamide] | ≤ 1
CN(C)C/C=C/C(=O)N1CCN(c2cnccc2-c2ccc(CNC(=O)c3nc(C(C)(C)C)no3)c(C(F)(F)F)c2)CC1 [Example 92, (E)-3-(tert-butyl)-N-(4-(3-(4-(4-(dimethylamino)but-2-enoyl)piperazin-1-yl)pyridin-4-yl)-2-(trifluoromethyl)benzyl)-1,2,4-oxadiazole-5-carboxamide] | ≤ 1
C=CC(=O)N(C)[C@@H]1CCCN(c2cncc(C#N)c2-c2ccc(CNC(=O)c3cn(C(C)(C)C)nn3)c(C)c2)C1 [Example 48, (R)-1-(tert-butyl)-N-(4-(3-cyano-5-(3-(N-methylacrylamido)piperidin-1-yl)pyridin-4-yl)-2-methylbenzyl)-1H-1,2,3-triazole-4-carboxamide] | ≤ 1
C=CC(=O)N1CCC[C@@H](c2cnccc2-c2ccc(CNC(=O)c3cc(C(C)(C)C)on3)c(C)c2)C1 (single isomer, unassigned) [Example 34] | > 10
C=CC(=O)N(C)[C@@H]1CCC(=O)N(c2cnccc2-c2ccc(CNC(=O)c3nnn(C(C)(C)C)n3)c(C)c2)C1 (single isomer, unassigned) [Example 53 Peak 2] | > 10
C=CC(=O)N1CCC2(CCN(c3cnccc3-c3ccc(CNC(=O)c4cn(C)nc4C(F)F)c(C)c3)C2)C1 (centres unmarked) [Example 5, N-(4-(3-(7-acryloyl-2,7-diazaspiro[4.4]nonan-2-yl)pyridin-4-yl)-2-methylbenzyl)-3-(difluoromethyl)-1-methyl-1H-pyrazole-4-carboxamide] | > 10
C=CC(=O)N1CCN(c2cncnc2-c2ccc(CNC(=O)c3nc(C4(C)CC4)no3)c(C)c2)CC1 [Example 84, N-(4-(5-(4-acryloylpiperazin-1-yl)pyrimidin-4-yl)-2-methylbenzyl)-3-(1-methylcyclopropyl)-1,2,4-oxadiazole-5-carboxamide] | ≤ 1
CN(C)C/C=C/C(=O)N1CCN(c2cnccc2-c2ccc(CNC(=O)c3noc(C4(C)CC4)n3)c(C(F)(F)F)c2)CC1 [Example 91, (E)-N-(4-(3-(4-(4-(dimethylamino)but-2-enoyl)piperazin-1-yl)pyridin-4-yl)-2-(trifluoromethyl)benzyl)-5-(1-methylcyclopropyl)-1,2,4-oxadiazole-3-carboxamide] | ≤ 1

Second part, the compound after the results:

IC50 [nM] | Structure (SMILES)
≤ 1 | C=CC(=O)N1CCN(c2cnccc2-c2ccc(CNC(=O)c3noc(C(C)(C)C)c3F)c(C)c2)CC1 [Example 96, N-(4-(3-(4-acryloylpiperazin-1-yl)pyridin-4-yl)-2-methylbenzyl)-5-(tert-butyl)-4-fluoroisoxazole-3-carboxamide]
> 10 | C=CC(=O)N1CC2(C1)CN(c1cnccc1-c1ccc(CNC(=O)c3noc(C(C)(C)C)n3)c(C)c1)C2 [Example 6, N-(4-(3-(6-acryloyl-2,6-diazaspiro[3.3]heptan-2-yl)pyridin-4-yl)-2-methylbenzyl)-5-(tert-butyl)-1,2,4-oxadiazole-3-carboxamide]
1 to 10 | CNC/C=C/C(=O)N1CCN(c2cnccc2-c2ccc(CNC(=O)c3noc(C(C)(C)C)n3)c(C)c2)CC1 [Example 68, (E)-5-(tert-butyl)-N-(2-methyl-4-(3-(4-(4-(methylamino)but-2-enoyl)piperazin-1-yl)pyridin-4-yl)benzyl)-1,2,4-oxadiazole-3-carboxamide]
≤ 1 | C=CC(=O)N(C)CC1CCN(c2cnccc2-c2ccc(CNC(=O)c3noc(C(C)(C)C)n3)c(C)c2)C1 (centres unmarked) [Example 20, 5-(tert-butyl)-N-(2-methyl-4-(3-(3-((N-methylacrylamido)methyl)pyrrolidin-1-yl)pyridin-4-yl)benzyl)-1,2,4-oxadiazole-3-carboxamide]
≤ 1 | CC#CC(=O)N1CCN(c2cnccc2-c2ccc(CNC(=O)c3noc(C(C)(C)C)n3)c(C)c2)CC1 [Example 62, N-(4-(3-(4-(but-2-ynoyl)piperazin-1-yl)pyridin-4-yl)-2-methylbenzyl)-5-(tert-butyl)-1,2,4-oxadiazole-3-carboxamide]
≤ 1 | C=CC(=O)N1CCN(c2cnccc2-c2ccc(CNC(=O)c3noc(C4(CF)CC4)n3)c(C)c2)CC1 [Example 98, N-(4-(3-(4-acryloylpiperazin-1-yl)pyridin-4-yl)-2-methylbenzyl)-5-(1-(fluoromethyl)cyclopropyl)-1,2,4-oxadiazole-3-carboxamide]
≤ 1 | CN(C)C/C=C/C(=O)N1CCN(c2cnccc2-c2ccc(CNC(=O)c3noc(C(C)(C)C)n3)c(C(F)F)c2)CC1 [Example 87, (E)-5-(tert-butyl)-N-(2-(difluoromethyl)-4-(3-(4-(4-(dimethylamino)but-2-enoyl)piperazin-1-yl)pyridin-4-yl)benzyl)-1,2,4-oxadiazole-3-carboxamide]
1 to 10 | Cc1cc(-c2ccncc2N2CCN(C(=O)C3CO3)CC2)ccc1CNC(=O)c1noc(C(C)(C)C)n1 (centres unmarked) [Example 59, 5-(tert-butyl)-N-(2-methyl-4-(3-(4-(oxirane-2-carbonyl)piperazin-1-yl)pyridin-4-yl)benzyl)-1,2,4-oxadiazole-3-carboxamide]
